Data from ChEMBL document CHEMBL1201862, “PubChem BioAssay data set” (2004).
Activity calls are given as the source filed them.

Experiments:
[1] = biological target: T1, Polyadenylate-binding protein 1 (Homo sapiens, UniProt P11940); experiment: MLLE binding blockers, Cy5 peptide tracer – biochemical, fluorescence polarization, Cy5-PAM2 peptide, secondary, miRNA deadenylation inhibitor project, dose response (AID 602260); format: functional; settings: read-out: IC50_Mean
[2] = biological target: T1, Polyadenylate-binding protein 1; experiment: MLLE domain peptide-binding blockers, IC50 – biochemical, fluorescence polarization, FITC-PAM2 peptide, dose response (AID 602259); format: functional; settings: read-out: IC50_Mean
[3] = biological target: T2, Low molecular weight phosphotyrosine protein phosphatase (Homo sapiens, UniProt P24666); format: functional; settings: read-out: IC50_Mean;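 further: Dose-response confirmation assay measuring inhibition of LMPTP enzyme activity by fluorescence intensity read-out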
T2 sequence (P24666 whole entry): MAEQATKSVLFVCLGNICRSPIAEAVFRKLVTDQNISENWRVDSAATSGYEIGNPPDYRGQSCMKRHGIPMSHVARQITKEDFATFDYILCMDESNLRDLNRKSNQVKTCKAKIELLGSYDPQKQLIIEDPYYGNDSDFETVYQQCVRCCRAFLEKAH

[4] = biological target: Glutathione-S-transferase (Schistosoma japonicum, UniProt Q26513); experiment: GST-antibody interaction or FRET quenching – biochemical, TR-FRET, artefact control for Vif-APOBEC3G degradation inhibitor project, dose response (AID 1117362); format: functional
[5] = biological target: Disintegrin and metalloproteinase domain-containing protein 17 (Homo sapiens, UniProt P78536); experiment: exosite inhibitors of ADAM17, dose response, biochemical (AID 743260)
[6] = inhibition of ADAM10 peptide cleavage – biochemical, FRET peptide substrate, recombinant human ADAM10, selectivity assay for ADAM17 exosite inhibitor project, dose response (AID 743259);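 further: ADAM10 enzyme cleaving a FRET peptide substrate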
Ephrin type-A receptor 4 = Ephrin type-A receptor 4 (Mus musculus, UniProt Q03137); experiment: EphA4 ligand-binding antagonists – biochemical, colorimetric, mouse EphA4, primary screen (AID 689); format: functional
[7] = Luminescence-based cell-based high throughput dose response assay to identify activators of the DAF-12 from the parasite S. stercoralis (ssDAF-12).; format: functional
[8] = biological target: T3, Oxysterols receptor LXR-beta (Homo sapiens, UniProt P55055); experiment: LXR agonists, Gal4 luciferase reporter, dose response, counter-screen for ssDAF-12 agonist project, cell-based, luminescence, HEK293, S. stercoralis campaign (AID 720737); format: functional; settings: read-out: IC50 (the source's name)
T3 sequence (P55055 whole entry): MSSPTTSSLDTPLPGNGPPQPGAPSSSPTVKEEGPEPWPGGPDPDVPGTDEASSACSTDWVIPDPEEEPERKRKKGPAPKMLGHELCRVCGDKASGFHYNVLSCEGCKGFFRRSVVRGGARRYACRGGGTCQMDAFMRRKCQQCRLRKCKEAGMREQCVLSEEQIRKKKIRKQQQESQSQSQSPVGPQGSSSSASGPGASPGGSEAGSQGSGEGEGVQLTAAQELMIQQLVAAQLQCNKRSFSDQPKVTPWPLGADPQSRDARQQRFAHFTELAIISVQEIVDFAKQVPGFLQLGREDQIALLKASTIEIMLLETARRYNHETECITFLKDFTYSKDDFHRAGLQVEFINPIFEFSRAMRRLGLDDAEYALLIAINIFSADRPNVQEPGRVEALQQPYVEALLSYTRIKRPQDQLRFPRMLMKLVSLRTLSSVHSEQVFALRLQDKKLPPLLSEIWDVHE

Paired box protein Pax-8 = Paired box protein Pax-8 (Homo sapiens, UniProt Q06710); experiment: PAX8 transcriptional activity inhibition in RMG-I – RMG-I cells, luciferase, cherry-pick, dose response (AID 687027); format: functional, cell-based;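 further: luciferase reporter driven by Pax8 target thyroperoxidase promoter measured by SteadyGlo luminescence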
[9] = inhibitors acting on PAX2 in cells – cell-based, plate reader, dry powder samples, selectivity assay for PAX8 inhibitor project, dose response (AID 743048); format: functional;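 further: HEK293 cells carrying a WT1 promoter luciferase reporter driven by expressed Pax2; potency is for inhibition of Pax2 driven reporter signal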
[10] = OVCAR-3 cell viability loss – plate reader, dry powder samples, PAX8 inhibitor project, dose response (AID 743044); format: functional, cell-based
[11] = PAX5 cellular inhibition readout – cell-based, plate reader, dry powder samples, selectivity assay for PAX8 inhibitor project, dose response (AID 743047); format: functional;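 further: HEK293 cells carrying a Pax5 driven CD19 promoter luciferase reporter; potency of inhibitors that lower reporter luminescence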
[12] = IGROV1 cell killing – plate reader, dry powder samples, PAX8 inhibitor project, dose response (AID 743043); format: functional, cell-based; settings: IGROV-1
[13] = COV434 cell viability loss – plate reader, dry powder, SA7, cytotoxicity control for PAX8 inhibitor project, dose response (AID 743145); format: functional, cell-based
[14] = OV-90 cell viability loss – plate reader, dry powder, SA8, PAX8 inhibitor project, dose response (AID 743149); format: functional, cell-based
[15] = PAX8-dependent cell viability loss – plate reader, dry powder, dose response (AID 743049); format: functional, cell-based
[16] = cytotoxicity in MITF-independent A375 cells – cell-based, CellTiter-Glo luminescence, dry powder, set 4, counter-screen for MITF inhibitor project, dose response (AID 624364); format: functional; settings: A-375;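 further: A375 melanoma cells are MITF independent so this is a counter screen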
[17] = viability loss in MITF-independent A375 cells – cell-based, CellTiter-Glo luminescence, dry powder, set 2, counter-screen for MITF inhibitor project, dose response (AID 624489); format: functional; settings: A-375;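 further: actives are compounds lowering A375 viability meaning general cytotoxicity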
HEK293 = experiment: viability loss in HEK293T cells – cell-based, ATP luminescence, cherry-pick samples, cytotoxicity control, dose response (AID 687005); format: functional; settings: Homo sapiens;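 further: cells exposed to compound for 48 hours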
[18] = HEK293 Cytotoxicity Assay Measured in Cell-Based System Using Plate Reader - 7071-01_Inhibitor_Dose_CherryPick_Activity_Set2.; format: functional
[19] = IC50 of insulin release inhibition, rat insulinoma INS-1E line, 5 mM glucose, cell-based (AID 1117331); format: functional
[20] = MITF Orthogonal Assay: SK-MEL-5 CTG Assay Measured in Cell-Based System Using Plate Reader - 2084-02_Inhibitor_Dose_DryPowder_Activity_Set7.; format: functional
[21] = MITF: Counter assay: A375 proliferation Measured in Cell-Based System Using Plate Reader - 2084-03_Inhibitor_Dose_DryPowder_Activity_Set8.; format: functional; settings: A-375
[22] = inhibitors of TRPM1-promoter reporter in SK-MEL-5 – cell-based, luciferase, dry powder, set 8, MITF inhibitor project, dose response (AID 624430); format: functional
[23] = biological target: G-protein coupled receptor 183 (Homo sapiens, UniProt P32249); experiment: SAR confirmation of small molecule antagonists of the EBI2 receptor via a luminescent beta-arrestin assa.; format: functional
[24] = glucagon-like peptide-1 release potency in STC-1, concentration-response, half-maximal inhibitory concentration in the STC-1 line (AID 1117345); format: functional, cell-based
[25] = Potency on glucagon-like peptide 1 release, dose-response in NCI-H716 cell line, half maximal inhibitory concentration (AID 1117344); format: functional, cell-based
[26] = CellTiter-Glo luminescence survival assay, SW480 colon tumor line, concentration-response curve, half-maximal inhibitory concentration (AID 1117338); format: functional
[27] = cytotoxicity toward HCT116 cells – cell-based, CellTiter-Glo luminescence, IC50, dose response (AID 1117332); format: functional; settings: HCT-116
[28] = SNU-C1 cell viability reduction, dose response, CellTiter-Glo luminescence (AID 1117323); format: functional, cell-based
[29] = cytotoxicity toward HT-29 cells – cell-based, CellTiter-Glo luminescence, IC50, dose response (AID 1117330); format: functional
[30] = Reduced DLD-1 viability, concentration-response, CellTiter-Glo luminescence (AID 1117352); format: functional

T1 sequence (P11940 whole entry, the tested form may be a part): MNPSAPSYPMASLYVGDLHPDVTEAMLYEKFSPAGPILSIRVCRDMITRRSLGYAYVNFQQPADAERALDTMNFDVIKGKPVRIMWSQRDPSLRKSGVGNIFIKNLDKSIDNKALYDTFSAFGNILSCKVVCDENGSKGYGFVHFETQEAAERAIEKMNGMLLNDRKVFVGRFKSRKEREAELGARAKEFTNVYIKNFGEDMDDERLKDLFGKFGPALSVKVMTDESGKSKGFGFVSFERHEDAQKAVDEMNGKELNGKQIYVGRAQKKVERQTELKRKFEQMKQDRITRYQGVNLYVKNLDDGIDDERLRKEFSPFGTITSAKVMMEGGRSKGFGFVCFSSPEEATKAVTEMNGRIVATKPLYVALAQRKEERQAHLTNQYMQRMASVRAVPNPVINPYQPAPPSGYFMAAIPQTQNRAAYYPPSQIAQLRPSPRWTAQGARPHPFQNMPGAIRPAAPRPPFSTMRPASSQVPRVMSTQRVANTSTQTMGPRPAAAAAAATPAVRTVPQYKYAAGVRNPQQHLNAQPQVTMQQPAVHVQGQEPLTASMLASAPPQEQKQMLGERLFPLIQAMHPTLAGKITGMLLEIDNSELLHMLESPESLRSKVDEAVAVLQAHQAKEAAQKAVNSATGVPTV
Chain of Disintegrin and metalloproteinase domain-containing protein 17 (P78536 whole entry, the tested form may be a part): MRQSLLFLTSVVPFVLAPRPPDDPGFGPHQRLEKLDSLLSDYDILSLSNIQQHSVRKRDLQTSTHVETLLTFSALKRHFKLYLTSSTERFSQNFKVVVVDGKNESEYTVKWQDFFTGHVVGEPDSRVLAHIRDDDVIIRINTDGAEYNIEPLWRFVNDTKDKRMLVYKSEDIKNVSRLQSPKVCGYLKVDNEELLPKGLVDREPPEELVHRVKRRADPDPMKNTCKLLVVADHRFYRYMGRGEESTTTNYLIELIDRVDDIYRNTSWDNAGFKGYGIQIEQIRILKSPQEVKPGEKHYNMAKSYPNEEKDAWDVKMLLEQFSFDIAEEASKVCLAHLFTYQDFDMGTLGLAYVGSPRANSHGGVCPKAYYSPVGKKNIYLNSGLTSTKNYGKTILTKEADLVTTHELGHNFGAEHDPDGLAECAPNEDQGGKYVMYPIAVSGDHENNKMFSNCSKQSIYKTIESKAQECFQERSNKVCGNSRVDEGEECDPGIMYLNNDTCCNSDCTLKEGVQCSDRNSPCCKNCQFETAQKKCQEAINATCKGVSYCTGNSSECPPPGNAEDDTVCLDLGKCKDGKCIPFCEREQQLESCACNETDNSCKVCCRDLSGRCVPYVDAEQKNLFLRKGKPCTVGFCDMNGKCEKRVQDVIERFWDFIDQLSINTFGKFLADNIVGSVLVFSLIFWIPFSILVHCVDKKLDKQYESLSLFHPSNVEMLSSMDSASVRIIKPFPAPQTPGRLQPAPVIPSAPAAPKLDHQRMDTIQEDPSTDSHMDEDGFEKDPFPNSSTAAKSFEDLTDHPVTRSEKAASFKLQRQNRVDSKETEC
Chain of G-protein coupled receptor 183 (P32249 whole entry): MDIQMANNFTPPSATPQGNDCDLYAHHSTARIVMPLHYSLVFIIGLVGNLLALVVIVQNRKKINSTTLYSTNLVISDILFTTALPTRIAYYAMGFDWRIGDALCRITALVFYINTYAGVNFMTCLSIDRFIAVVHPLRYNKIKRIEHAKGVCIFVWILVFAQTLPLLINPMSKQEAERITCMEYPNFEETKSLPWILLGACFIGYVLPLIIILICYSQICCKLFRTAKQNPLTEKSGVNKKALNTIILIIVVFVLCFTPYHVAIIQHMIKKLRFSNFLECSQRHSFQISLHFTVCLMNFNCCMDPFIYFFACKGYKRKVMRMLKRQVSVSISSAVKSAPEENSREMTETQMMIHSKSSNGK
Chain of Ephrin type-A receptor 4 (Q03137 whole entry): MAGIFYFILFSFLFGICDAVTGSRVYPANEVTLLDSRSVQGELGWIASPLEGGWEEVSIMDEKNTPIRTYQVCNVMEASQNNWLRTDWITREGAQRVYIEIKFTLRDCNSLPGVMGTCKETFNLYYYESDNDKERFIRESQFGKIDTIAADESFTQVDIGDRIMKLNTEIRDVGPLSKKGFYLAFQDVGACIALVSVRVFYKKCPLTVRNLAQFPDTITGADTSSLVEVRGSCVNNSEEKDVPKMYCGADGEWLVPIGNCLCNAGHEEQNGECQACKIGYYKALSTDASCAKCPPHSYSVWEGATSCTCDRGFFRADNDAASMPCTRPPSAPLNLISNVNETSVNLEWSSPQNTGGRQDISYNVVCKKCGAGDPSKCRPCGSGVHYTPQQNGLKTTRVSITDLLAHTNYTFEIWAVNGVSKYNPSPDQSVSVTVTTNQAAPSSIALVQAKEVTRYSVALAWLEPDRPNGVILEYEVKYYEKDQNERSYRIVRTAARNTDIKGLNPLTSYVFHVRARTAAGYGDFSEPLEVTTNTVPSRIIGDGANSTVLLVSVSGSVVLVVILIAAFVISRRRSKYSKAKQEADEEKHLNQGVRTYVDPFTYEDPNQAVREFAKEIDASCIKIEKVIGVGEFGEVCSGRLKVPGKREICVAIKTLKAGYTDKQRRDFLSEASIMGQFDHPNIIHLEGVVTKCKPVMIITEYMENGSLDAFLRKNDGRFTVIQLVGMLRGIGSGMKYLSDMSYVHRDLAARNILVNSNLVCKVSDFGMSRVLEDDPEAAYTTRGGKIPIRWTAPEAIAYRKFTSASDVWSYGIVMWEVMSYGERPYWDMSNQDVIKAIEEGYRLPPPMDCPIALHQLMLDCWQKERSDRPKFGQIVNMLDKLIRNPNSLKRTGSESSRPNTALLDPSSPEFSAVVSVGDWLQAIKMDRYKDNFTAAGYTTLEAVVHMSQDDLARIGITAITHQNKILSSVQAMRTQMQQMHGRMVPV
Chain of Paired box protein Pax-8 (Q06710 whole entry): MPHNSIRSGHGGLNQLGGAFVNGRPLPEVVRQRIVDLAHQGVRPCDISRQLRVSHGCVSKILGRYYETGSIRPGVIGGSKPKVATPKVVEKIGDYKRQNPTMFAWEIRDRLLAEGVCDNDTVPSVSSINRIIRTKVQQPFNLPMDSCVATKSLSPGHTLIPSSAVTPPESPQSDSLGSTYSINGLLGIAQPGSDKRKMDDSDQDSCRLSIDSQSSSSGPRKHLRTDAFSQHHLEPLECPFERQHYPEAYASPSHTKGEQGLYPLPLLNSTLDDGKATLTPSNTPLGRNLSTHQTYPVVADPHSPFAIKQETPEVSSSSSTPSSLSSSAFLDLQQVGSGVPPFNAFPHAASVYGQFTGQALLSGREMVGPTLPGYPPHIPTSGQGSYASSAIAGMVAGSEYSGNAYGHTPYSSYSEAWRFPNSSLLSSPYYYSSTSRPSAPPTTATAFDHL
Chain of Glutathione-S-transferase (Q26513 whole entry, the tested form may be a part): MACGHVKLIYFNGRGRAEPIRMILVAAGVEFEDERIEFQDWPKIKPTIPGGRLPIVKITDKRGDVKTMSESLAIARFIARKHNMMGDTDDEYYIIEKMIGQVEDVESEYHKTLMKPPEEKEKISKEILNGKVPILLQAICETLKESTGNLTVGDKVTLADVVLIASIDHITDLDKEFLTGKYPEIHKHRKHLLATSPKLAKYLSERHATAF

In the case of CN=c1cccccc1S, the IC50 [1] is reported as > 66 µM (inactive), the IC50 [2] is reported as > 66 µM (inactive) and the IC50 [3] is reported as 49 µM (inactive). The IC50 [4] was > 100 µM (active).
In the case of O=C(NCC1COc2ccccc2O1)c1cccc(S(=O)(=O)N2CCN(c3ccccc3)CC2)c1 (centres undefined), the IC50 [5] is reported as > 69.5 µM (inactive) and the IC50 [6] is reported as > 69.5 µM (inactive).
With Cc1ccsc1/C=C/C1=Cc2c(sc(NC(=O)CSc3nnc(N)[nH]3)c2C#N)C(C)(C)C1 the IC50 (Ephrin type-A receptor 4) was 3.15 µM (active).
With CCCN1C(=O)/C(=C/C=C2\N(CC)c3ccccc3C2(C)C)SC1=S the IC50 (Ephrin type-A receptor 4) was 5.08 µM (active).
In the case of O=C(COn1nnc2ccc(C(F)(F)F)cc21)Nc1c(Cl)cccc1Cl, the IC50 [7] is reported as > 67.6 µM (inactive) and the EC50 [8] is reported as > 67.6 µM (inactive).
For O=C1c2ccccc2C(=O)N1CC(O)CN1CCOCC1 (centres undefined), the IC50 [7] was > 67.5 µM (inactive) and the EC50 [8] was > 67.5 µM (inactive).
In the case of CCc1ccc(/C=C2\SC(=S)N(CCCC(=O)N(CCO)c3ccccc3)C2=O)cc1, the AC50 (Paired box protein Pax-8) is reported as 7.65 µM (active), the AC50 [9] is reported as 31.9 µM (active) and the AC50 [10] is reported as 29.1 µM (active). The AC50 [11] was 33 µM (active), the AC50 [12] was 9.33 µM (active) and the AC50 [13] was 8.05 µM (active). The AC50 [14] was 35.1 µM (active) and the AC50 [15] was 15.1 µM (active).
With NC1=C(c2ccccc2)C(=O)c2ccccc2C1=O the AC50 [16] was > 70 µM (inactive) and the AC50 [17] was > 70 µM (inactive).
With C[C@@H]1CCCCO[C@H](CN(C)Cc2ccccc2)[C@H](C)CN([C@@H](C)CO)C(=O)c2cc(NS(=O)(=O)c3cccs3)ccc2O1 the AC50 (HEK293) was 30.9 µM (active) and the AC50 [18] was 30.9 µM (active).
In the case of O=C(Nc1cccc(F)c1)N[C@H]1CC[C@H](CCNS(=O)(=O)c2cccc(Cl)c2)O[C@@H]1CO, the AC50 (HEK293) is reported as 26 µM (active) and the AC50 [18] is reported as 26 µM (active).
In the case of CCC(CN)=C(c1ccccc1)c1ccccc1, the IC50 [19] is reported as 10.8 µM (inactive).
For COC(=O)[C@H](CC(C)C)N(CCc1cn(Cc2ccccc2)nn1)S(=O)(=O)c1ccccc1Br, the IC50 [5] was > 69.5 µM (inactive) and the IC50 [6] was > 69.5 µM (inactive).
In the case of CN1CCN(C2=C(NC(=O)c3ccc(Br)cc3)C(=O)c3ccccc3C2=O)CC1, the AC50 [16] is reported as 23.5 µM (active) and the AC50 [17] is reported as 8.99 µM (active).
In the case of O=C1C(Nc2cccc(Br)c2)=C(N2CCCC2)C(=O)c2ccccc21, the AC50 [20] is reported as 11.8 µM (active), the AC50 [21] is reported as > 70 µM (inactive) and the AC50 [22] is reported as 13.1 µM (active).
For O=C(/C=C/c1ccc(F)cc1)N1CCN(S(=O)(=O)c2cccc(Cl)c2)CC1, the IC50 [23] was 0.0115 µM (active).
With O=C(/C=C/c1ccccc1F)N1CCN(S(=O)(=O)c2ccc(Br)cc2)CC1 the IC50 [23] was 0.252 µM (active).
For O=C1C(Nc2ccc(Cl)cc2)=C(N2CCCCC2)C(=O)c2ccccc21, the AC50 [20] was 4.38 µM (active), the AC50 [21] was 26.8 µM (active) and the AC50 [22] was 2.87 µM (active).
For CCCCCCCCCCCC[N+](C)(C)CCOc1ccccc1 [DOMIPHEN BROMIDE], the IC50 [24] was > 40 µM (inactive) and the IC50 [25] was 16.2 µM (inactive).
In the case of CC(C(=O)O)c1cccc(C(=O)c2ccccc2)c1 (centres undefined) [KETOPROFEN], the IC50 [26] is reported as 10.3 µM (inactive), the IC50 [27] is reported as 10.5 µM (inactive) and the IC50 [28] is reported as 3.8 µM (active). The IC50 [29] was 14.4 µM (inactive) and the IC50 [30] was 8.64 µM (inactive).
With Cc1cc(OI)c(C(C)C)cc1-c1cc(C(C)C)c(OI)cc1C [THYMOL IODIDE] the IC50 [19] was > 33.3 µM (inactive), the IC50 [24] was 15.1 µM (inactive) and the IC50 [25] was > 40 µM (inactive).
